US8614327B2 (Vertex Pharmaceuticals Incorporated, priority 2004, dated 2013)
pEC50: −log10 of the molar value.

Biological target: T1, ΔF508-CFTR (Homo sapiens, UniProt P13569, DEL508-508)
T1 construct: expressed in transfected cells
Experiment: Membrane potential optical (FRET/VIPR) assay, identification of potentiator compounds
Type: cell-based
Details: Table 3, assay not given; for % Activity: relative efficacy
How it was run: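 NIH3T3 mouse fibroblasts stably expressing ΔF508-CFTR, temperature-corrected 24 h at 27° C., read on VIPR by FRET between CC2-DMPE and DiSBAC2(3). Potentiators identified in a double-addition format, first adding chloride-free (gluconate) medium with or without compound.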

T1 sequence (P13569 with tags, fused parts or gaps DEL508-508): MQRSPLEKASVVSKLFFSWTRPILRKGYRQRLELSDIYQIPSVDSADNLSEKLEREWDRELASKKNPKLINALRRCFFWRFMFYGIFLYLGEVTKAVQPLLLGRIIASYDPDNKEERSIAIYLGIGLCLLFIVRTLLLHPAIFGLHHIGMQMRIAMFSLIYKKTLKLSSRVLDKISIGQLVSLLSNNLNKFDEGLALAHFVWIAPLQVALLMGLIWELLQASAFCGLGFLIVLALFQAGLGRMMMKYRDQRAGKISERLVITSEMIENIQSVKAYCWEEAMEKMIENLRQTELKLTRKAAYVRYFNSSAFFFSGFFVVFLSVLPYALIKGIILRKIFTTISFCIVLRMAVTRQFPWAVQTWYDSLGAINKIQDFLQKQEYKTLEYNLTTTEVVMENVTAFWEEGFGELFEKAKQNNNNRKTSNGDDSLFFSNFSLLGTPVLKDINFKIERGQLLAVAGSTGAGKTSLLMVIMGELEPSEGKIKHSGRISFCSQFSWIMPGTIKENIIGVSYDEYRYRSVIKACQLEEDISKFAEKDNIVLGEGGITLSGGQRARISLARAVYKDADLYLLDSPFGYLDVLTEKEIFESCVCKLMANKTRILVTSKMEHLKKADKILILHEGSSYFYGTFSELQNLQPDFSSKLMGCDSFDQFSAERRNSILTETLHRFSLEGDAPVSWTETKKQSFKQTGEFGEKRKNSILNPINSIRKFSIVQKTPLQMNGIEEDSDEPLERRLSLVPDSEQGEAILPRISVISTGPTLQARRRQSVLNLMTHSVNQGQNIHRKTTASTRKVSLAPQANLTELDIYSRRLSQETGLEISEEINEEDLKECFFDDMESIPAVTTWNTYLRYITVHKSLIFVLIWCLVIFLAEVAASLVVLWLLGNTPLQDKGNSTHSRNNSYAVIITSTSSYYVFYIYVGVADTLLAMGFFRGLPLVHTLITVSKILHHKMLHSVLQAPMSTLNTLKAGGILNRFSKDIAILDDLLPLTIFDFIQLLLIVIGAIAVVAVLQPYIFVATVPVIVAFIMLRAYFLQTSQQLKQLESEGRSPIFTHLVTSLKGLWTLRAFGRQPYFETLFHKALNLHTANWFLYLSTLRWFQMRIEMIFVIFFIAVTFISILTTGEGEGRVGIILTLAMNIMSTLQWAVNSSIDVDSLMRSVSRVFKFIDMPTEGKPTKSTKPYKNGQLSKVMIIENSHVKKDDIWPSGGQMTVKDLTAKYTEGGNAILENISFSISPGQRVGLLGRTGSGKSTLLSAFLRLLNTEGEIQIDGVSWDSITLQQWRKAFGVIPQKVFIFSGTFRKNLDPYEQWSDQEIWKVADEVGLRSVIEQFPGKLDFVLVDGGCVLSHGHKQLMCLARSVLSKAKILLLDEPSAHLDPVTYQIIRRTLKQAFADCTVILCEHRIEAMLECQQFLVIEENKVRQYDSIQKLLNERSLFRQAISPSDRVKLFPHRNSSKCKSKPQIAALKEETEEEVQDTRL

## CCOC(=O)Nc1cc(NC(=O)c2c[nH]c3ccccc3c2=O)ccc1C [Compound 141, [2-methyl-5-[(4-oxo-1H-quinolin-3-yl)carbonylamino]phenyl]aminoformic acid ethyl ester]
  pEC50: 4.60 to 5.00
  % Activity: ++ (between 25% to 100%)

## CCOc1ccc(OCC)c(NC(=O)c2c[nH]c3ccccc3c2=O)c1 [Compound 264, N-(2,5-diethoxyphenyl)-4-oxo-1H-quinoline-3-carboxamide]
  pEC50: 4.60 to 5.00
  % Activity: ++ (between 25% to 100%)

## O=C(Nc1ccc2nccnc2c1)c1c[nH]c2ccccc2c1=O [Compound 443, 4-oxo-N-quinoxalin-6-yl-1H-quinoline-3-carboxamide]
  pEC50: 4.22 to 4.60
  % Activity: + (<25%)

## CC(C)(C)c1cc2ccc(NC(=O)c3c[nH]c4ccccc4c3=O)cc2[nH]1 [Compound 320, 4-oxo-N-(2-tert-butyl-1H-indol-6-yl)-1H-quinoline-3-carboxamide]
  pEC50: > 5.00
  % Activity: ++ (between 25% to 100%)

## O=C(Nc1ccc(C(F)(F)F)cc1Cl)c1c[nH]c2ccc(F)cc2c1=O [Compound 636, N-[2-chloro-4-(trifluoromethyl)phenyl]-6-fluoro-4-oxo-1H-quinoline-3-carboxamide]
  pEC50: > 5.00
  % Activity: + (<25%)

## C[C@H]1CCCN1c1ccc(NC(=O)c2c[nH]c3ccccc3c2=O)c(C(F)(F)F)c1 [Compound 618, (S)-N-(4-(2-methylpyrrolidin-1-yl)-2-(trifluoromethyl)phenyl)-4-oxo-1,4-dihydroquinoline-3-carboxamide]
  pEC50: > 5.00
  % Activity: ++ (between 25% to 100%)

## Cc1cc(C(C)(C)C)c(O)cc1NC(=O)c1c[nH]c2ccccc2c1=O [Compound 518, N-(5-hydroxy-2-methyl-4-tert-butyl-phenyl)-4-oxo-1H-quinoline-3-carboxamide]
  pEC50: > 5.00
  % Activity: ++ (between 25% to 100%)

## Cc1ccc2cccc(NC(=O)c3c[nH]c4ccccc4c3=O)c2n1 [Compound 364, N-(2-methyl-8-quinolyl)-4-oxo-1H-quinoline-3-carboxamide]
  pEC50: > 5.00
  % Activity: ++ (between 25% to 100%)

## O=C(Nc1cccnc1)c1c[nH]c2ccccc2c1=O [Compound 168, 4-oxo-N-(3-pyridyl)-1H-quinoline-3-carboxamide]
  pEC50: 4.22 to 4.60
  % Activity: + (<25%)

## Cc1cccc(-c2ccccc2NC(=O)c2c[nH]c3ccccc3c2=O)c1 [Compound 52, N-[2-(m-tolyl)phenyl]-4-oxo-1H-quinoline-3-carboxamide]
  pEC50: > 5.00
  % Activity: ++ (between 25% to 100%)

## CCCCOc1ccccc1NC(=O)c1c[nH]c2ccccc2c1=O [Compound 177, N-(2-butoxyphenyl)-4-oxo-1H-quinoline-3-carboxamide]
  pEC50: > 5.00
  % Activity: +++ (>100%)

## CC(C)(C)c1ccc(NC(=O)c2c[nH]c3ccccc3c2=O)cc1O [Compound 428, N-(3-hydroxy-4-tert-butyl-phenyl)-4-oxo-1H-quinoline-3-carboxamide]
  pEC50: > 5.00
  % Activity: ++ (between 25% to 100%)

## O=C(Nc1ccccc1-c1cccc(OC(F)(F)F)c1)c1c[nH]c2ccccc2c1=O [Compound 253, 4-oxo-N-[2-[3-(trifluoromethoxy)phenyl]phenyl]-1H-quinoline-3-carboxamide]
  pEC50: > 5.00
  % Activity: ++ (between 25% to 100%)

## Cc1csc(-c2ccccc2NC(=O)c2c[nH]c3ccccc3c2=O)c1 [Compound 151, N-[2-(4-methyl-2-thienyl)phenyl]-4-oxo-1H-quinoline-3-carboxamide]
  pEC50: > 5.00
  % Activity: ++ (between 25% to 100%)

## Cc1cccc(NC(=O)c2c[nH]c3ccccc3c2=O)c1 [Compound 449, N-(m-tolyl)-4-oxo-1H-quinoline-3-carboxamide]
  pEC50: > 5.00
  % Activity: ++ (between 25% to 100%)

## O=C(Nc1cc(N2CCCC2)cc(C(F)(F)F)c1)c1c[nH]c2ccccc2c1=O [Compound 593, 4-oxo-N-[3-pyrrolidin-1-yl-5-(trifluoromethyl)phenyl]-1H-quinoline-3-carboxamide]
  pEC50: > 5.00
  % Activity: ++ (between 25% to 100%)

## O=C(Nc1ccc(Oc2ccccc2)cc1)c1c[nH]c2ccccc2c1=O [Compound 267, 4-oxo-N-(4-phenoxyphenyl)-1H-quinoline-3-carboxamide]
  pEC50: > 5.00
  % Activity: ++ (between 25% to 100%)

## O=C(Nc1ccc(N2CCCC2)cc1)c1c[nH]c2ccccc2c1=O [Compound 674, 4-oxo-N-(4-pyrrolidin-1-ylphenyl)-1H-quinoline-3-carboxamide]
  % Activity: ++ (between 25% to 100%)

## CC(C)(C)c1cc2cc[nH]c2cc1NC(=O)c1c[nH]c2cc(OC(F)(F)F)ccc2c1=O [Compound 632, 4-oxo-N-(5-tert-butyl-1H-indol-6-yl)-7-(trifluoromethoxy)-1H-quinoline-3-carboxamide]
  pEC50: > 5.00
  % Activity: ++ (between 25% to 100%)

## CC1(C)CCCNc2cc(NC(=O)c3c[nH]c4ccccc4c3=O)ccc21 [Compound 35, 1,4-dihydro-N-(2,3,4,5-tetrahydro-5,5-dimethyl-1H-benzo[b]azepin-8-yl)-4-oxoquinoline-3-carboxamide]
  pEC50: > 5.00
  % Activity: ++ (between 25% to 100%)

## Cc1cc(N2CCCC2)ccc1NC(=O)c1c[nH]c2ccccc2c1=O [Compound 615, N-(2-methyl-4-pyrrolidin-1-yl-phenyl)-4-oxo-1H-quinoline-3-carboxamide]
  pEC50: > 5.00
  % Activity: +++ (>100%)

## COc1nc2ccccc2c(OC)c1C(=O)Nc1ccccc1C(C)(C)C [Compound 296, 2,4-dimethoxy-N-(2-tert-butylphenyl)-quinoline-3-carboxamide]
  pEC50: 4.60 to 5.00
  % Activity: ++ (between 25% to 100%)

## CC(C)n1cc(C(=O)Nc2ccccc2C(C)(C)C)c(=O)c2ccccc21 [Compound 473, 1-isopropyl-4-oxo-N-(2-tert-butylphenyl)-1H-quinoline-3-carboxamide]
  pEC50: 4.60 to 5.00
  % Activity: ++ (between 25% to 100%)

## COc1ncccc1NC(=O)c1c[nH]c2ccccc2c1=O [Compound 15, N-(2-methoxy-3-pyridyl)-4-oxo-1H-quinoline-3-carboxamide]
  pEC50: 4.60 to 5.00
  % Activity: ++ (between 25% to 100%)

## CC(=O)Nc1cc(NC(=O)c2c[nH]c3ccccc3c2=O)cc(C(F)(F)F)c1 [Compound 379, N-[3-acetylamino-5-(trifluoromethyl)phenyl]-4-oxo-1H-quinoline-3-carboxamide]
  pEC50: 4.60 to 5.00
  % Activity: ++ (between 25% to 100%)

## CC(C)(C)c1ccc(NC(=O)c2c[nH]c3ccccc3c2=O)cc1 [Compound 448, 4-oxo-N-(4-tert-butylphenyl)-1H-quinoline-3-carboxamide]
  pEC50: > 5.00
  % Activity: ++ (between 25% to 100%)

## CCC(CC)(CC)c1cc(F)c(NC(=O)c2cnc3ccccc3c2O)cc1O [Compound 34, N-[4-(1,1-diethylpropyl)-2-fluoro-5-hydroxy-phenyl]-4-hydroxy-quinoline-3-carboxamide]
  pEC50: > 5.00
  % Activity: ++ (between 25% to 100%)

## O=C(Nc1ccc2cc[nH]c2c1)c1cnc2cc(C(F)(F)F)cc(C(F)(F)F)c2c1O [Compound 130, 4-hydroxy-N-(1H-indol-6-yl)-5,7-bis(trifluoromethyl)quinoline-3-carboxamide]
  pEC50: > 5.00
  % Activity: ++ (between 25% to 100%)

## COc1ccc2c(=O)c(C(=O)Nc3ccc(N4CCC[C@@H]4C)cc3C(F)(F)F)c[nH]c2c1 [Compound 642, (S)-7-methoxy-N-(4-(2-methylpyrrolidin-1-yl)-2-(trifluoromethyl)phenyl)-4-oxo-1,4-dihydroquinoline-3-carboxamide]
  pEC50: > 5.00
  % Activity: ++ (between 25% to 100%)

## CC(C)(C)c1ccc(NC(=O)c2c[nH]c3ccc(F)cc3c2=O)cc1F [Compound 527, 6-fluoro-N-(3-fluoro-4-tert-butyl-phenyl)-4-oxo-1H-quinoline-3-carboxamide]
  pEC50: > 5.00
  % Activity: ++ (between 25% to 100%)

## CC(C)c1ccc(NC(=O)c2c[nH]c3ccccc3c2=O)cc1 [Compound 425, N-(4-isopropylphenyl)-4-oxo-1H-quinoline-3-carboxamide]
  % Activity: ++ (between 25% to 100%)

## O=C(Nc1cccc(O)c1)c1c[nH]c2ccccc2c1=O [Compound 144, N-(3-hydroxyphenyl)-4-oxo-1H-quinoline-3-carboxamide]
  pEC50: > 5.00
  % Activity: ++ (between 25% to 100%)

## Cc1cccc(NC(=O)c2c[nH]c3ccccc3c2=O)c1C [Compound 61, N-(2,3-dimethylphenyl)-4-oxo-1H-quinoline-3-carboxamide]
  pEC50: > 5.00
  % Activity: ++ (between 25% to 100%)

## O=C(Nc1cc(Cl)cc(NS(=O)(=O)CCN2CCCCC2)c1)c1c[nH]c2ccccc2c1=O [Compound 133, N-[3-chloro-5-[2-(1-piperidyl)ethylsulfonylamino]phenyl]-4-oxo-1H-quinoline-3-carboxamide]
  pEC50: 4.60 to 5.00
  % Activity: ++ (between 25% to 100%)

## O=C(Nc1cc(C(F)(F)F)ccc1C(F)(F)F)c1c[nH]c2ccccc2c1=O [Compound 630, N-[2,5-bis(trifluoromethyl)phenyl]-4-oxo-1H-quinoline-3-carboxamide]
  pEC50: > 5.00
  % Activity: ++ (between 25% to 100%)

## COc1ccccc1-c1cc2cc[nH]c2cc1NC(=O)c1c[nH]c2ccccc2c1=O [Compound 237, N-[5-(2-methoxyphenyl)-1H-indol-6-yl]-4-oxo-1H-quinoline-3-carboxamide]
  % Activity: ++ (between 25% to 100%)

## CC(=O)N1CCc2ccc(NC(=O)c3c[nH]c4ccccc4c3=O)cc2C1 [Compound 303, N-(2-acetyl-1,2,3,4-tetrahydroisoquinolin-7-yl)-4-oxo-1H-quinoline-3-carboxamide]
  pEC50: 4.60 to 5.00
  % Activity: ++ (between 25% to 100%)
